Test results as given in PubChem BioAssay AID256 (DTP/NCI, 2004).
Several values for one entry are separate records, joined by “and”; a condition that tells them apart may be missing. Identical values can stand only once. Toxic doses and inconclusive results are not listed. The calls were made as follows: active = survival T/C of 150% or more; inactive = T/C below 125% in these data. Residues, ends and D or L forms follow the SMILES beside them. *: point of attachment. Dnp = O=[N+]([O-])c1ccc(*)c([N+](=O)[O-])c1

Tested on: CD2F1 mice, L1210 leukemia ip, survival T/C
Assay: NCI In Vivo Anticancer Drug Screen. Data for tumor model L1210 Leukemia (intraperitoneal) in CD2F1 (CDF1) mice
Conditions: endpoint: mean survival time, higher = longer survival
Procedure, shortened: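 In this screen, transplantable tumors were grown in mice given either the compound or its vehicle. Results were expressed as the treated measurement relative to the control measurement.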

[1] = dose: 25.0 mg/kg/injection, schedule: Q01DX009 (ip), vehicle: saline with Tween-80
[2] = dose: 50.0 mg/kg/injection, schedule: Q01DX009 (ip), vehicle: saline with Tween-80
[3] = dose: 100.0 mg/kg/injection, schedule: Q01DX009 (ip), vehicle: saline with Tween-80
[4] = dose: 100.0 mg/kg/injection, schedule: Q04DX003 (ip), vehicle: saline sonified
[5] = dose: 100.0 mg/kg/injection, schedule: Q04DX003 (ip), vehicle: saline with Tween-80
[6] = dose: 200.0 mg/kg/injection, schedule: Q01DX009 (ip), vehicle: saline with Tween-80
[7] = dose: 200.0 mg/kg/injection, schedule: Q04DX003 (ip), vehicle: saline with Tween-80
[8] = dose: 400.0 mg/kg/injection, schedule: Q01DX009 (ip), vehicle: saline with Tween-80
[9] = dose: 400.0 mg/kg/injection, schedule: Q04DX003 (ip), vehicle: saline with Tween-80
[10] = dose: 100.0 mg/kg/injection, schedule: Q01DX001 (ip), vehicle: saline with Tween-80
[11] = dose: 200.0 mg/kg/injection, schedule: Q01DX001 (ip), vehicle: saline with Tween-80
[12] = dose: 400.0 mg/kg/injection, schedule: Q01DX001 (ip), vehicle: saline with Tween-80

Measured: T/C

O=c1n(-c2ccccc2)c(=O)n(-c2ccccc2)c(=O)n1-c1ccccc1
inactive: dose: 100.0 mg/kg/injection, schedule: Q01DX001 (ip), vehicle: Klucel (hydroxypropylcellulose) (HPC) 93 % of control | dose: 200.0 mg/kg/injection, schedule: Q01DX001 (ip), vehicle: Klucel (hydroxypropylcellulose) (HPC) 90 % of control | dose: 400.0 mg/kg/injection, schedule: Q01DX001 (ip), vehicle: Klucel (hydroxypropylcellulose) (HPC) 101 % of control

CN(C)C(=N)N(C)C
inactive: [1] 98 % of control | [2] 95 % of control | [3] 87 % of control | [4] 101 % of control

Nc1nc(N)c(N=Nc2ccccc2S(=O)(=O)O)c(N)n1
inactive: [3] 94 % of control | [5] 95 % of control | [6] 108 % of control | [7] 100 % of control | [8] 100 % of control | [9] 93 % of control

O=C(Nc1ccccc1)Oc1ccc(OCc2ccccc2)cc1
inactive: dose: 12.5 mg/kg/injection, schedule: Q01DX009 (ip), vehicle: saline with Tween-80 94 % of control | [1] 90 % of control | [2] 92 % of control

NCC(=O)NC(CSc1ccc([N+](=O)[O-])cc1[N+](=O)[O-])C(=O)NC(CCC(=O)O)C(=O)O (stereo not given) (H-Gly-Cys(Dnp)-Glu-OH; configuration not given here)
inactive: [5] 103 % of control | [7] 101 % of control | [9] 98 % of control

Cc1ccccc1Nc1cc(=O)[nH]c(=O)[nH]1
inactive: [10] 95 % of control | [11] 95 % of control | [12] 94 % of control

CCCNC(=O)OCC#CC#CCOC(=O)NCCC
inactive: dose: 100.0 mg/kg/injection, schedule: Q04DX003 (ip), vehicle: Klucel (hydroxypropylcellulose) (HPC) 94 % of control | dose: 200.0 mg/kg/injection, schedule: Q04DX003 (ip), vehicle: Klucel (hydroxypropylcellulose) (HPC) 98 % of control | dose: 400.0 mg/kg/injection, schedule: Q04DX003 (ip), vehicle: Klucel (hydroxypropylcellulose) (HPC) 96 % of control

O=S1(=O)CC(Cl)(Br)C1 (tested in a mixture with another compound)
inactive: dose: 50.0 mg/kg/injection, schedule: Q01DX009 (ip), vehicle: Klucel (hydroxypropylcellulose) (HPC) 92 % of control | dose: 100.0 mg/kg/injection, schedule: Q01DX009 (ip), vehicle: Klucel (hydroxypropylcellulose) (HPC) 107 % of control | dose: 200.0 mg/kg/injection, schedule: Q01DX009 (ip), vehicle: Klucel (hydroxypropylcellulose) (HPC) 103 % of control

CCCCC(C)C1(CCC)NC(C)(C)CC(C)O1 (stereo not given)
inactive: [10] 97 % of control | [11] 101 % of control

CCCc1c(C)[nH]c2ccc(C)cc12
inactive: dose: 50.0 mg/kg/injection, schedule: Q01DX009 (ip), vehicle: saline 102 % of control | dose: 100.0 mg/kg/injection, schedule: Q01DX009 (ip), vehicle: saline 104 % of control | [5] 101 % of control | [7] 86 % of control

NC1CONC1=O (stereo not given)
inactive: dose: 100.0 mg/kg/injection, schedule: Q04DX003 (ip), vehicle: saline 94 % of control | dose: 200.0 mg/kg/injection, schedule: Q04DX003 (ip), vehicle: saline 97 % of control | dose: 400.0 mg/kg/injection, schedule: Q04DX003 (ip), vehicle: saline 96 % of control

N#CN1CCC2CC3(CCC2C1)OCCO3 (stereo not given)
inactive: dose: 100.0 mg/kg/injection, schedule: Q01DX001 (ip), vehicle: saline 96 % of control | dose: 200.0 mg/kg/injection, schedule: Q01DX001 (ip), vehicle: saline 91 % of control | dose: 400.0 mg/kg/injection, schedule: Q01DX001 (ip), vehicle: saline 96 % of control

O=c1[nH]nc(-c2cccc3ccccc23)o1
inactive: [10] 96 % of control | [11] 99 % of control | [12] 108 % of control

Cc1ccc2c(c1)N(CCCN(C)C)c1ccccc1S2
inactive: dose: 22.0 mg/kg/injection, schedule: Q04DX003 (ip), vehicle: saline 105 % of control | dose: 33.0 mg/kg/injection, schedule: Q04DX003 (ip), vehicle: saline 97 % of control | dose: 50.0 mg/kg/injection, schedule: Q04DX003 (ip), vehicle: saline 105 % of control | dose: 75.0 mg/kg/injection, schedule: Q04DX003 (ip), vehicle: saline 103 % of control

COc1cc2c(c(OC)c1OC)-c1ccc(SC)c(=O)cc1[C@@H](NC1OC(CO)C(O)C(O)C1O)CC2 (stereo not given in full)
inactive: dose: 3.13 mg/kg/injection, schedule: Q01DX009 (ip), vehicle: saline 117 % of control

C1OC1C1CO1 (stereo not given)
inactive: dose: 1.25 mg/kg/injection, schedule: Q01DX009 (ip), vehicle: saline 97 % of control and 98 % of control | dose: 2.5 mg/kg/injection, schedule: Q01DX009 (ip), vehicle: saline 95 % of control and 100 % of control | dose: 5.0 mg/kg/injection, schedule: Q01DX009 (ip), vehicle: saline 96 % of control and 103 % of control | dose: 10.0 mg/kg/injection, schedule: Q01DX009 (ip), vehicle: saline 98 % of control and 105 % of control | dose: 20.0 mg/kg/injection, schedule: Q01DX009 (ip), vehicle: saline 103 % of control and 112 % of control | dose: 40.0 mg/kg/injection, schedule: Q01DX009 (ip), vehicle: saline 108 % of control

CCCCCCCCCCCCCCCCSSCCCCCCCCCCCCCCCC
inactive: [5] 88 % of control | [7] 88 % of control | [9] 92 % of control

Cc1nc2ccccc2n1C
inactive: [1] 105 % of control | [2] 96 % of control | [3] 104 % of control

O=C(Nc1ccc(F)c(Cl)c1)Oc1ccc(F)cc1Cl
inactive: [3] 103 % of control | [6] 104 % of control | [8] 92 % of control

CSc1nc(N)c2c3c(N)ncnc3n(C3OC(CO)C(O)C3O)c2n1 (stereo not given)
inactive: dose: 25.0 mg/kg/injection, schedule: Q01DX005 (ip), vehicle: distilled water + Tween-80 97 % of control | dose: 50.0 mg/kg/injection, schedule: Q01DX005 (ip), vehicle: distilled water + Tween-80 91 % of control | dose: 100.0 mg/kg/injection, schedule: Q01DX005 (ip), vehicle: distilled water + Tween-80 91 % of control | dose: 200.0 mg/kg/injection, schedule: Q01DX005 (ip), vehicle: distilled water + Tween-80 97 % of control | dose: 400.0 mg/kg/injection, schedule: Q01DX005 (ip), vehicle: distilled water + Tween-80 101 % of control

CNc1ncnc2c1cnn2C1OC(CO)C(O)C1O (stereo not given)
inactive: dose: 12.5 mg/kg/injection, schedule: Q01DX005 (ip), vehicle: water 93 % of control | dose: 25.0 mg/kg/injection, schedule: Q01DX005 (ip), vehicle: water 102 % of control | dose: 50.0 mg/kg/injection, schedule: Q01DX005 (ip), vehicle: water 104 % of control

COc1cc2ccc(CCN)cc2cc1OC
inactive: dose: 12.5 mg/kg/injection, schedule: Q04DX003 (ip), vehicle: saline with Tween-80 102 % of control | dose: 25.0 mg/kg/injection, schedule: Q04DX003 (ip), vehicle: saline with Tween-80 102 % of control | dose: 50.0 mg/kg/injection, schedule: Q04DX003 (ip), vehicle: saline with Tween-80 96 % of control

O=c1cnn(C2OC(CO)C(O)C2O)c(=S)[nH]1 (stereo not given)
inactive: [3] 123 % of control | [4] 102 % of control | [6] 107 % of control | dose: 200.0 mg/kg/injection, schedule: Q04DX003 (ip), vehicle: saline sonified 104 % of control | [8] 112 % of control | dose: 400.0 mg/kg/injection, schedule: Q04DX003 (ip), vehicle: saline sonified 96 % of control
